≈ marks a conversion by molar mass, not a printed value.
How the values were obtained:
[1] = system: human rhinovirus (HRV) serotypes; test: microbe, parasite or virus in culture; format: cell-based; settings: for MIC50: read-out: Rhinovirus MIC50; for IC (MIC80 of serotype panel): read-out: Rhinovirus MIC80
[2] = system: Polio 2; test: microbe, parasite or virus in culture; format: cell-based, poliovirus; settings: Enterovirus C, HeLa, read-out: Polio 2 MIC

Structure (SMILES) | MIC50 [1] [µg/mL] | IC (MIC80 of serotype panel) [1] [µg/mL] | MIC [2] [µg/mL]
Cc1cc(CCCCCOc2ccc(C3=NCC(CO)O3)cc2)on1 (stereo not drawn) [Example 75, 5-{5-[4-(4,5-Dihydro-5-hydroxymethyl-2-oxazolyl)phenoxyl]pentyl}-3-methylisoxazole] | 9.95 (≈ 28.9 µM) | 35.2 | 0.69 (≈ 2 µM)
Cc1cc(CCCCCOc2ccc(-c3ncco3)cc2Br)on1 [Example 92, 5-{5-[2-Bromo-4-(2-oxazolyl)phenoxy]pentyl}-3-methylisoxazole] | 0.07 (≈ 0.179 µM) | 0.61 | 0.07 (≈ 0.179 µM)
Cc1cc(CCCCCOc2ccc(C3=NCCO3)c(O)c2C)on1 [Example 80, 5-{5-[4-(4,5-Dihydro-2-oxazolyl)-3-hydroxy-2-methylphenoxy]pentyl}-3-methylisoxazole] | 0.13 (≈ 0.377 µM) | 0.27 | 0.11 (≈ 0.319 µM)
Cc1cc(CCC#CCOc2c(Cl)cc(C3=NCCO3)cc2Cl)on1 [Example 151, 5-{5-[2,6-Dichloro-4-(4,5-dihydro-2-oxazolyl)phenoxy]-3-pentynyl}-3-methylisoxazole] | 0.2 (≈ 0.527 µM) | 1.2 | 0.4 (≈ 1.05 µM)
Cc1cc(CCC=CCOc2ccc(C3=NCCO3)cc2Cl)on1 [Example 68, 5-{5-[2-Chloro-4-(4,5-dihydro-2-oxazolyl)phenoxy]-3-pentenyl}-3-methylisoxazole] | 0.4 (≈ 1.15 µM) | 1 | 0.23 (≈ 0.663 µM)
Cc1cc(CCCCCOc2ccc(-c3ncc(Cl)o3)cc2)on1 [Example 145, 5-{5-[4-(5-Chloro-2-oxazolyl)phenoxy]pentyl}-3-methylisoxazole] | 0.2 (≈ 0.577 µM) | 0.29 | 0.033 (≈ 0.0952 µM)
Cc1cc(CCCCC[S+]([O-])c2ccc(C3=NCCO3)cc2)on1 (stereo not drawn) [Example 104, 5-{5-[[4-(4,5-Dihydro-2-oxazolyl)phenyl]sulfinyl]pentyl}-3-methylisoxazole] | 9.85 (≈ 28.4 µM) | 12.5 | 12.5 (≈ 36.1 µM)
Cc1cc(CCCCCOc2ccc(C3=NC(C)CO3)cc2)on1 (stereo not drawn) [Example 56, 5-{5-[4-(4,5-Dihydro-4-methyl-2-oxazolyl)phenoxy]pentyl}-3-methylisoxazole] | 0.164 (≈ 0.499 µM) | 25.3 | 0.07 (≈ 0.213 µM)
Cc1cc(CCCCCOc2ccc(C3=NCCO3)cc2C(=O)O)on1 [Example 86, 5-{5-[2-Carboxy-4-(4,5-dihydro-2-oxazolyl)phenoxy]pentyl}-3-methylisoxazole] | 99 (≈ 276 µM) | 99 | 2.6 (≈ 7.25 µM)
Cc1cc(CCCCCCCOc2ccc(C3=NCCO3)c(C)c2)on1 [38(b), 5-{7-[4-(4,5-Dihydro-2-oxazolyl)-3-methylphenoxy]heptyl}-3-methylisoxazole] | 0.69 (≈ 1.94 µM) | 0.9 | 0.3 (≈ 0.842 µM)
Cc1cc(CCCCCCCOc2ccc(C3=NCCO3)cc2C)on1 [31(b), 5-{7-[4-(4,5-Dihydro-2-oxazolyl)-2-methylphenoxy]heptyl}-3-methylisoxazole] | 0.15 (≈ 0.421 µM) | 0.56 | 0.36 (≈ 1.01 µM)
Cc1cc(CCCCCOc2ccc(-c3ncco3)cc2)on1 [Example 88, 3-Methyl-5-{5-[4-(2-oxazolyl)phenoxy]pentyl}isoxazole] | 0.38 (≈ 1.22 µM) | 25.2 | 0.025 (≈ 0.08 µM)
Cc1cc(CCCCCOc2ccc(C3=NC(C)(C)CO3)cc2)on1 [Example 62, 5-{5-[4-(4,5-Dihydro-4,4-dimethyl-2-oxazolyl)phenoxy]pentyl}-3-methylisoxazole] | 1.5 (≈ 4.38 µM) | 2.4 | 0.51 (≈ 1.49 µM)
COCc1cc(CCCCCOc2c(Cl)cc(C3=NCCO3)cc2Cl)on1 [Example 117, 5-{5-[2,6-Dichloro-4-(4,5-dihydro-2-oxazolyl)phenoxy]pentyl}-3-(methoxymethyl)isoxazole] | 0.09 (≈ 0.218 µM) | 0.31 | 0.39 (≈ 0.944 µM)
Cc1cc(CC/C=C/COc2c(Cl)cc(C3=NCCO3)cc2Cl)on1 [Example 113, 5-{5-[2,6-Dichloro-4-(4,5-dihydro-2-oxazolyl)phenoxy]-3-pentenyl}-3-methylisoxazole (E-isomer)] | 0.09 (≈ 0.236 µM) | 0.167 | 0.4 (≈ 1.05 µM)
Cc1cc(CCCCCOc2ccc(C3=NCCO3)cc2F)on1 [Example 20, 5-{5-[4-(4,5-Dihydro-2-oxazolyl)-2-fluorophenoxy]pentyl}-3-methylisoxazole] | 0.38 (≈ 1.14 µM) | 26.9 | 0.1 (≈ 0.301 µM)
CN(C)Cc1cc(CCCCCCCOc2ccc(C3=NCCO3)cc2)on1 [Example 136(b), 5-{7-[4-(4,5-Dihydro-2-oxazolyl)phenoxy]heptyl}-3-(dimethylaminomethyl)isoxazole] | 0.88 (≈ 2.28 µM) | 1.47 | 0.62 (≈ 1.61 µM)
Cc1cc(CCCCCOc2ccc(-c3nc(C)c(C)o3)cc2)on1 [89(d), 5-{5-[4-(4,5-Dimethyl-2-oxazolyl)phenoxy]pentyl}-3-methylisoxazole] | 0.19 (≈ 0.558 µM) | 0.77 | 0.16 (≈ 0.47 µM)
Cc1cc(CCCOc2c(Cl)cc(C3=NCCO3)cc2Cl)on1 [Example 115, 5-{3-[2,6-Dichloro-4-(4,5-dihydro-2-oxazolyl)phenoxy]propyl}-3-methylisoxazole] | 0.04 (≈ 0.113 µM) | 0.58 | 3.1 (≈ 8.73 µM)
Cc1cc(CCCCCOc2ccc(C3=NC(C)CO3)c(Cl)c2)on1 (stereo not drawn) [Example 77, 5-{5-[3-Chloro-4-(4,5-dihydro-4-methyl-2-oxazolyl)phenoxy]pentyl}-3-methylisoxazole] | 0.088 (≈ 0.243 µM) | 1.47 | 0.05 (≈ 0.138 µM)
CCc1cc(C2=NCCO2)cc(C)c1OCCCCCc1cc(C)no1 [157(d), 5-{5-[4-(4,5-Dihydro-2-oxazolyl)-2-ethyl-6-methylphenoxy]pentyl}-3-methylisoxazole] | 1.25 (≈ 3.51 µM) | 2.5 | 3.3 (≈ 9.26 µM)
Cc1cc(CCCCCSc2ccc(C3=NCCO3)cc2)on1 [103(c), 5-{5-[[4-(4,5-Dihydro-2-oxazolyl)phenyl]thio]pentyl}-3-methylisoxazole] | 0.57 (≈ 1.72 µM) | 27.1 | 0.37 (≈ 1.12 µM)
Cc1cc(CCCCCCOc2ccc(C3=NCCO3)cc2Cl)on1 [Example 16, 5-{-[26-Chloro-4-(4,5-dihydro-2-oxazolyl)phenoxy]hexyl}-3-methylisoxazole] | 0.08 (≈ 0.22 µM) | 0.43 | 0.13 (≈ 0.358 µM)
Cc1cc(CCCCCOc2ccc(C3=NCCO3)cc2C=O)on1 [Example 70, 5-{5-[4-(4,5-Dihydro-2-oxazolyl)-2-formylphenoxy]pentyl}-3-methylisoxazole] | 0.85 (≈ 2.48 µM) | 1.6 | 0.1 (≈ 0.292 µM)
Cc1cc(CCCOCOCCOc2ccc(C3=NCCO3)cc2Cl)on1 [Example 82, 5-{3-[[2-[2-Chloro-4-(4,5-dihydro-2-oxazolyl)phenoxy]ethoxy]methoxy]propyl}-3-methylisoxazole] | 1.2 (≈ 3.04 µM) | 5.4 | 2.9 (≈ 7.34 µM)
Cc1cc(CCCCCCCOc2ccc(C3=NCCO3)cc2Br)on1 [Example 45, 5-{7-[2-Bromo-4(4,5-dihydro-2-oxazolyl)phenoxy]heptyl}-3-methylisoxazole] | 0.16 (≈ 0.38 µM) | 0.7 | 0.5 (≈ 1.19 µM)

— patent US4843087A (priority 1986, dated 1989)
